Assay results as given in paper PMC10743905, “Design, Synthesis, and In Vitro and In Vivo Bioactivity Studies of Hydrazide–Hydrazones of 2,4-Dihydroxybenzoic Acid” (International Journal of Molecular Sciences, 2023).
Values after ≈ are worked out from the molar mass of the structure shown. Read-outs that look alike come from different tables or passages of the source.

What was measured:
[1] = test system: Proteus mirabilis ATCC 12453; assay: Broth microdilution MIC/MBC; format: cell-based; settings: for MBC / MIC: ATCC12453
Method in brief: (§1)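 Preliminary agar screening used 2 mg/mL compound with incubation at 37°C for 24 h (bacteria) or 30°C for 48 h (fungi). Subsequent MIC determination: two-fold broth microdilution, 1000 to 0.488 µg/ml final.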

[2] = test system: Micrococcus luteus ATCC 10240; assay: Broth microdilution MIC/MBC; format: cell-based; settings: for MBC: ATCC10240
Method in brief: as §1

[3] = test system: Staphylococcus epidermidis ATCC 12228; assay: Broth microdilution MIC/MBC; format: cell-based; settings: for MBC: ATCC12228
Method in brief: as §1

[4] = test system: Pseudomonas aeruginosa ATCC 9027; assay: Broth microdilution MIC/MBC; format: cell-based; settings: for MBC / MIC: ATCC9027
Method in brief: as §1

[5] = test system: Staphylococcus aureus ATCC 29213; assay: Broth microdilution MIC/MBC; format: cell-based; settings: for MBC / MIC: ATCC29213
Method in brief: as §1

[6] = test system: H1563; assay: MTT antiproliferative assay; format: cell-based, human; settings: for IC50: MTT, 24 h incubation, lung adenocarcinoma; for Selectivity Index: ratio IC50 HEK-293 / IC50 H1563
Experimental: (§2) The in vitro studies were performed on the reference line HEK-293 (human embryonic kidney cells, ATCC® CRL-1573™) and […] human cancer cell lines: 769-P (adenocarcinoma, renal cells, ATCC® CRL-1933™) and HepG2 (carcinoma, hepatocellular, ATCC® HB-8065™), H1563 (adenocarcinoma, non-smallcell lung cancer, ATCC® CRL-5875™), LN-229 (glioblastoma, ATCC® CRL-2611™). Cells from the 769-P and H1563 cell lines were cultured in RPMI-1640 growth medium (PAN Biotech GmbH, Aidenbach, Bayern, Germany), cells from the HEK-293 and HepG2 cell lines were cultured in EMEM growth medium (PAN Biotech GmbH, Aidenbach, Bayern, Germany), and cells from the LN-229 cell line were cultured in DMEM growth medium (PAN Biotech GmbH, Aidenbach, Bayern, Germany) in sterile 75 cm^2 culture phalcones. Fetal bovine serum (PAN Biotech GmbH, Aidenbach, Bayern, Germany) at 10% of growth medium and antibiotics (Sigma-Aldrich, Poland) (2.5 µg/mL amphotericin B, 100 µg/mL penicillin, and 100 µg/mL streptomycin) were added to all media. Cells were cultured at 37 °C in an incubator with 5% CO2 flow until a cell layer was formed. Following this, the medium was removed, and the cells were washed with 0.25% trypsin solution with 2.21 mM EDTA (Corning Incorporated, Corning, NY, USA) in order to completely remove fetal bovine serum containing trypsin inhibitor. Finally, 6 mL of complete growth medium was added, and the cells were aspirated by gentle pipetting.
(§3) The determination of inhibitory concentration (IC50) in the HEK-293, 769-P, HepG2, H1563, and LN-229 cell cultures for selected hydrazide–hydrazones was performed using the MTT assay procedure. This test was performed according to the MTT Assay ECVAM n°17 protocol manual prepared by the European Centre for the Validation of Alternative Methods (ECVAM), an entity that aims to reduce in vivo testing in favor of in vitro and in silico methods. To 96-well sterile plates, 100 μL of cell suspensions, prepared in the appropriate medium at a concentration of 3 × 10^5 cells/mL, was added using a multichannel pipette. To achieve cell adhesion to the bottom of the plates, cells were incubated for 24 h at 37 °C with 5% CO2 flow and 90% humidity. To determine the growth-inhibitory concentration, the solutions of the tested substances (19–24) were prepared at concentrations ranging from 1 µM to 500 µM, added individually to the wells following the rule of 8 wells per concentration, and the plates were again incubated for 24 h at 37 °C and with 5% CO2 addition. We also prepared a background control (200 μL of the respective growth medium) and negative control (100 μL of cells in the appropriate growth medium + 100 μL of the growth medium), which provided information on the amount of formazan formed in the untreated cells. After a 24 h incubation period, the solutions were extracted from the cells; 190 μL of growth medium and 10 μL of 5 mg/mL MTT solution (Invitrogen, Waltham, MA, USA) were added each and incubated for 4 h. After this time, all medium was removed, 100 μL of DMSO (Corning Incorporated, Corning, NY, USA) was added to each well, and absorbance measurements were performed at 550 nm using a Power Weave xs spectrophotometric microplate reader (BioTek, Winooski, VT, USA). The decrease in absorbance is equivalent to the decrease in MTT formazan production, which is due to the decrease in mitochondrial dehydrogenase activity and indicates a cytotoxic effect from the tested substances. Cell viability is expressed as a percentage as the ratio of the absorbance of test substance-treated cells to the untreated cells. The experiments were repeated three times.
(§4) The significance level was taken as p < 0.05.

[7] = test system: 769-P; assay: MTT antiproliferative assay; format: cell-based, human; settings: for IC50: Homo sapiens, 769-P, MTT, 24 h incubation, renal adenocarcinoma; for Selectivity Index: ratio IC50 HEK-293 / IC50 769-P
Experimental: as §2, §3, §4

[8] = test system: LN-229; assay: MTT antiproliferative assay; format: cell-based, human; settings: for IC50: Homo sapiens, LN-229, MTT, 24 h incubation, glioblastoma; for Selectivity Index: ratio IC50 HEK-293 / IC50 LN-229
Experimental: as §2, §3, §4

O=C(N/N=C/c1cc(I)cc(I)c1O)c1ccc(O)cc1O [Compound 18, 2,4-dihydroxy-N-[(2-hydroxy-3,5-diiodophenyl)methylidene]benzohydrazide]
MBC/MIC [1]: > 2 | MBC [1]: > 1000 µg/mL | MIC [1]: 500 µg/mL (≈ 0.954 mM) | MBC/MIC [2]: 4 | MIC [2]: 0.48 µg/mL (≈ 0.000916 mM) | MBC [2]: 1.95 µg/mL (≈ 0.00372 mM) | MIC ([2]; ATCC10240, read-out: MIC): 0.48 µg/mL (≈ 0.000916 mM) | MBC/MIC [3]: 8 | MIC [3]: 0.98 µg/mL (≈ 0.00187 mM) | MBC [3]: 7.81 µg/mL (≈ 0.0149 mM) | MIC ([3]; ATCC12228, read-out: MIC): 0.98 µg/mL (≈ 0.00187 mM) | MBC/MIC [4]: > 1 | MBC [4]: > 1000 µg/mL | MIC [4]: 1000 µg/mL (≈ 1.91 mM) | MBC/MIC [5]: 2 | MBC [5]: 15.6 µg/mL (≈ 0.0298 mM) | MIC [5]: 7.81 µg/mL (≈ 0.0149 mM)

O=C(N/N=C/c1ccccc1F)c1ccc(O)cc1O [Compound 24, N-[(2-fluorophenyl)methylidene]-2,4-dihydroxybenzohydrazide]
MIC [1]: > 1000 µg/mL | MBC/MIC [2]: > 1 | MBC [2]: > 1000 µg/mL | MIC ([2]; ATCC10240, read-out: MIC): 1000 µg/mL (≈ 3.65 mM) | MIC ([3]; ATCC12228, read-out: MIC): > 1000 µg/mL | MIC [4]: > 1000 µg/mL | MIC [5]: > 1000 µg/mL | IC50 ([6]; Homo sapiens, NCI-H1563, 24 h): 200 µM | Selectivity Index [6]: 1.94 | IC50 [7]: > 500 µM | IC50 [8]: 199 µM | Selectivity Index [8]: 1.94

CCCc1ccc(/C=N/NC(=O)c2ccc(O)cc2O)cc1 [Compound 13, 2,4-dihydroxy-N-[(4-propylphenyl)methylidene]benzohydrazide]
MBC/MIC [1]: > 1 | MBC [1]: > 1000 µg/mL | MIC [1]: 1000 µg/mL (≈ 3.35 mM) | MBC/MIC [2]: > 1 | MBC [2]: > 1000 µg/mL | MIC ([2]; ATCC10240, read-out: MIC): 1000 µg/mL (≈ 3.35 mM) | MBC/MIC [3]: > 1 | MBC [3]: > 1000 µg/mL | MIC ([3]; ATCC12228, read-out: MIC): 1000 µg/mL (≈ 3.35 mM) | MBC/MIC [4]: > 1 | MBC [4]: > 1000 µg/mL | MIC [4]: 1000 µg/mL (≈ 3.35 mM) | MBC/MIC [5]: > 1 | MBC [5]: > 1000 µg/mL | MIC [5]: 1000 µg/mL (≈ 3.35 mM)

O=C(N/N=C/c1cccc([N+](=O)[O-])c1)c1ccc(O)cc1O [Compound 20, 2,4-dihydroxy-N-[(3-nitrophenyl)methylidene]benzohydrazide]
MIC [1]: > 1000 µg/mL | MIC ([2]; ATCC10240, read-out: MIC): > 1000 µg/mL | MIC ([3]; ATCC12228, read-out: MIC): > 1000 µg/mL | MIC [4]: > 1000 µg/mL | MIC [5]: > 1000 µg/mL | IC50 ([6]; Homo sapiens, NCI-H1563, 24 h): 70.9 µM | Selectivity Index [6]: 1.89 × 10^2 | IC50 [7]: > 500 µM | IC50 [8]: > 500 µM

O=C(N/N=C/c1ccccc1Br)c1ccc(O)cc1O [Compound 23, N-[(2-bromophenyl)methylidene]-2,4-dihydroxybenzohydrazide]
MIC [1]: > 1000 µg/mL | MIC ([2]; ATCC10240, read-out: MIC): > 1000 µg/mL | MBC/MIC [3]: > 2 | MBC [3]: > 1000 µg/mL | MIC ([3]; ATCC12228, read-out: MIC): 500 µg/mL (≈ 1.49 mM) | MIC [4]: > 1000 µg/mL | MIC [5]: > 1000 µg/mL | IC50 ([6]; Homo sapiens, NCI-H1563, 24 h): 101 µM | Selectivity Index [6]: 9.08 × 10^2 | IC50 [7]: > 500 µM | IC50 [8]: 157 µM | Selectivity Index [8]: 5.85 × 10^2

O=C(N/N=C/c1ccccc1[N+](=O)[O-])c1ccc(O)cc1O [Compound 19, 2,4-dihydroxy-N-[(2-nitrophenyl)methylidene]benzohydrazide]
MBC/MIC [1]: > 1 | MBC [1]: > 1000 µg/mL | MIC [1]: 1000 µg/mL (≈ 3.32 mM) | MBC/MIC [2]: > 1 | MBC [2]: > 1000 µg/mL | MIC ([2]; ATCC10240, read-out: MIC): 1000 µg/mL (≈ 3.32 mM) | MBC/MIC [3]: > 2 | MBC [3]: > 1000 µg/mL | MIC ([3]; ATCC12228, read-out: MIC): 500 µg/mL (≈ 1.66 mM) | MBC/MIC [4]: > 1 | MBC [4]: > 1000 µg/mL | MIC [4]: 1000 µg/mL (≈ 3.32 mM) | MBC/MIC [5]: > 1 | MBC [5]: > 1000 µg/mL | MIC [5]: 1000 µg/mL (≈ 3.32 mM) | IC50 ([6]; Homo sapiens, NCI-H1563, 24 h): 65.7 µM | IC50 [6]: 65.6 µM | Selectivity Index [6]: 2.27 × 10^3 | IC50 [7]: 45.4 µM | Selectivity Index [7]: 3.29 × 10^3 | IC50 [8]: 130 µM | Selectivity Index [8]: 1.14 × 10^3

O=C(N/N=C/c1ccc([N+](=O)[O-])cc1)c1ccc(O)cc1O [Compound 21, 2,4-dihydroxy-N-[(4-nitrophenyl)methylidene]benzohydrazide]
MIC [1]: > 1000 µg/mL | MBC/MIC [2]: > 1 | MBC [2]: > 1000 µg/mL | MIC ([2]; ATCC10240, read-out: MIC): 1000 µg/mL (≈ 3.32 mM) | MBC/MIC [3]: > 2 | MBC [3]: > 1000 µg/mL | MIC ([3]; ATCC12228, read-out: MIC): 500 µg/mL (≈ 1.66 mM) | MIC [4]: > 1000 µg/mL | MBC/MIC [5]: > 2 | MBC [5]: > 1000 µg/mL | MIC [5]: 500 µg/mL (≈ 1.66 mM) | IC50 ([6]; Homo sapiens, NCI-H1563, 24 h): > 500 µM | IC50 [7]: 12.4 µM | IC50 [8]: 0.77 µM

O=C(N/N=C/c1ccccc1Cl)c1ccc(O)cc1O [Compound 22, N-[(2-chlorophenyl)methylidene]-2,4-dihydroxybenzohydrazide]
MIC [1]: > 1000 µg/mL | MIC ([2]; ATCC10240, read-out: MIC): > 1000 µg/mL | MBC/MIC [3]: > 1 | MBC [3]: > 1000 µg/mL | MIC ([3]; ATCC12228, read-out: MIC): 1000 µg/mL (≈ 3.44 mM) | MIC [4]: > 1000 µg/mL | MIC [5]: > 1000 µg/mL | IC50 ([6]; Homo sapiens, NCI-H1563, 24 h): 217 µM | Selectivity Index [6]: 1.45 | IC50 [7]: 262 µM | Selectivity Index [7]: 1.20 | IC50 [8]: 111 µM | Selectivity Index [8]: 2.85
